Assay results from PMC8942850, “Boron clusters as broadband membrane carriers” (Nature, 2022).

Columns and labels:
[1] = U-tube transport experiment across a bulk chloroform layer; settings: trans: 2 mM HPTS, pH 7.4
Description: U-tube transport experiments, across a bulk chloroform layer, unambiguously confirmed that the brominated cluster served as a non-covalent carrier across a hydrophobic bulk barrier (Extended Data Fig. 2a, b). To quantitatively characterize the transport efficiency of the new cluster carriers, the normalized fluorescence responses in the vesicle experiments (Fig. 2b) were plotted against cluster concentration to produce dose–response curves (Fig. 2c and Extended Data Fig. 3a). […] This activity rivals the pyrenebutyrate (1) gold standard in the field (Ea ≈ 5)[18], which we used throughout as a control.
The U-tubes were home-made, similarly to those of Rebek and co-workers[52] and Matile and co-workers[19], and consisted of a small beaker with a central glass barrier separating the two aqueous phases, namely cis ([…]) and trans (receiving phase), but enabling the placement of an interfacing chloroform layer below the cis and trans phases. A 3 ml portion of CHCl3 was located in the U-tube and 1 ml of the cis and trans phases were added. The organic phase was stirred at 700 r.p.m. at room temperature. Aliquots (20 μl) from the aqueous trans phase were taken at different times, diluted to 450 μl with buffer (10 mM Tris, 107 mM NaCl, pH 7.4) and measured by fluorescence. […]

HeLa cells = experiment: Flow cytometry of total TAMRA-R8 uptake; type: cell-based; settings: for mean_of_medians: Extended Data Fig.5a, mean of n = 3
Experimental: HeLa cells were seeded at 10,000 cells per well in 96-well plates. The next day, they were incubated for 1 h with the indicated compounds diluted in HKR. Cells were subsequently washed for 5 min with HKR containing 0.1 mg ml^−1 heparin, washed again with HKR and trypsinized. Trypsin was neutralized with PBS containing 2% FBS and 5 mM EDTA. TAMRA fluorescence was excited with a green laser (532 nm) and measured on a Guava easyCyte BG HT collecting the emission at 620/52 nm (Orange-G channel) and using InCyte v.3.2 (GuavaSoft, Millipore). Data were analysed with R (v.4.0.3)[54] and the packages CytoExploreR (v.1.0.8)[56] and ggcyto (v.1.18.0)[57] Cells with typical FSC and SSC parameters were selected and the median fluorescence intensity calculated for each sample. Each condition was measured in triplicate.
Cells were incubated with 1 µM peptide, in the absence or presence of 10 µM cluster for 1 h. […] After medium removal and solubilization with DMSO, the absorbance at 570 nm was measured. Values were normalized to the untreated cell control (100%). Data are mean ± s.d. of three replicates. Source data

[2] = system: Escherichia coli Top10 strain; experiment: Kanamycin A delivery in E. coli (OD570 growth); type: cell-based; settings: incubation with the cluster alone, up to 1 mM
Experimental: As a proof-of-principle, we investigated its potential to reduce the minimum inhibitory concentration of kanamycin A, an aminoglycoside antibiotic. Aminoglycosides function by binding to the bacterial 30S ribosomal subunit; consequently, effective passage through the cell wall and plasma membrane is essential for aminoglycosides to reach their intracellular targets. […]
A preculture of E. coli Top10 cells was incubated overnight in LB medium with 50 µg ml^−1 streptomycin sulfate. […] After 18 h, the optical density at 570 nm, as an indicator of bacterial growth, was measured with a Tecan Infinite F200Pro microplate reader. Data were normalized for each concentration of B12Br12^2− relative to the control condition without antibiotic.
Solid points indicate mean ± s.d. of three technical replicates. […] Cross-bars indicate mean ± s.d. of three independent experiments (two with technical triplicates, one with technical duplicates); values obtained in each experiment are represented by different shapes. c, Viability of HeLa cells after incubation with different doses of MMAF in the presence of 0, 5 and 10 μM B12Br12^2−. Solid points indicate mean ± s.d. of three technical replicates. d, Corresponding IC50 values of MMAF. […] Source data

B12Br12^2−
Transport of DPX across chloroform, without peptide cargo ([1]; cis: 40 μM cluster and 20 mM DPX): faster and more efficient transport of DPX
Transport of DPX across chloroform, with peptide cargo ([1]; cis: 40 μM cluster, 20 μM WR7, 20 mM DPX, 10 mM Tris, 107 mM NaCl, HPTS quenching): the fastest and most efficient transport of DPX
mean_of_medians (HeLa cells; 10 uM cluster, Tm-R8 0 uM): 56.9232
mean_of_medians (HeLa cells; 10 uM cluster, Tm-R8 1 uM): 648.983
mean_of_medians (HeLa cells; 50 uM cluster, Tm-R8 0 uM): 50.2824
mean_of_medians (HeLa cells; 50 uM cluster, Tm-R8 1 uM): 905.363
Enhancement of total TAMRA-R8 uptake (flow cytometry) (HeLa cells; HeLa, 1 µM TAMRA-R8, 10 or 50 µM cluster, 1 h): most active carrier
Bacterial survival, cluster alone [2]: did not affect bacterial survival
